Reference: paper PMC11855827, “High-Throughput Screening of Five Compound Libraries for Anthelmintic Activity and Toxicity Leads to the Discovery of Two Flavonoid Compounds” (International Journal of Molecular Sciences, 2025)
Values joined by “and” are separate entries in the source; they are usually repeats but may differ in a detail not shown here. Equal values may be shown once. Read-outs that look alike come from different tables or passages of the source. Where no end group is shown, it is not given here.

System: C. elegans
[1] = Table S2, C. elegans SS assay, 110 μM, 0 h, averages of 4 data points
[2] = Table S2, C. elegans SS assay, 110 μM, 24 h, averages of 4 data points

## C[C@@H]1O[C@@H](OC[C@H]2O[C@@H](Oc3c(-c4ccc(O)c(O)c4)oc4cc(O)cc(O)c4c3=O)[C@H](O)[C@@H](O)[C@@H]2O)[C@H](O)[C@H](O)[C@H]1O [Ruti n]
[1]
  Percentage of motility inhibition 0 h: 33%
[2]
  Percentage of motility inhibition 24 h: 10%

## CCN1C[C@]2(COC)[C@H](O)C[C@H](OC)[C@@]34[C@@H]5C[C@@]6(O)[C@H](OC(=O)c7ccccc7)[C@@H]5[C@@](O)([C@@H]([C@H](OC)[C@H]23)[C@@H]14)[C@@H](O)[C@@H]6OC [Benzoylaconine]
[1]
  Percentage of motility inhibition 0 h: 2%
[2]
  Percentage of motility inhibition 24 h: 0%

## COC(=O)C1=CO[C@@H](O)[C@@H]2[C@@H](C)[C@@H](O)C[C@H]12 [Loganetin]
[1]
  Percentage of motility inhibition 0 h: 0%
[2]
  Percentage of motility inhibition 24 h: 2%

## COc1ccc2[nH]cc(CCO)c2c1 [5‐Methoxytryptophol]
[1]
  Percentage of motility inhibition 0 h: 25%
[2]
  Percentage of motility inhibition 24 h: 7%

## CO/N=C(\C(=O)N[C@@H]1C(=O)N2C(C(=O)[O-])=C(COC(N)=O)CS[C@H]12)c1ccco1.[Na+] [Cefuroxime (sodium)]
[1]
  Percentage of motility inhibition 0 h: 19%
[2]
  Percentage of motility inhibition 24 h: 17%

## CC[C@](C)(C#N)O[C@@H]1O[C@H](CO)[C@@H](O)[C@H](O)[C@H]1O [Lotaustralin]
[1]
  Percentage of motility inhibition 0 h: 11%
[2]
  Percentage of motility inhibition 24 h: 20%

## CC1=C(/C=C/C(C)=C/C=C/C(C)=C/C=C/C=C(C)/C=C/C=C(\C)C=O)C(C)(C)CCC1 [β-Apo-8'-carotenal]
[1]
  Percentage of motility inhibition 0 h: 12%
[2]
  Percentage of motility inhibition 24 h: 1%

## C=CCCCCCCCCC(=O)O [10-Undecenoic acid]
[1]
  Percentage of motility inhibition 0 h: 0%
[2]
  Percentage of motility inhibition 24 h: 6%

## O=C(O[C@H]1Cc2c(O)cc(O)cc2O[C@@H]1c1ccc(O)c(O)c1)c1cc(O)c(O)c(O)c1 [(‐)‐Catechin gallate]
[1]
  Percentage of motility inhibition 0 h: 3%
[2]
  Percentage of motility inhibition 24 h: 0%

## Strictosamide
[1]
  Percentage of motility inhibition 0 h: 0%
[2]
  Percentage of motility inhibition 24 h: 9%

## Cc1nc(N(C)C(=O)Cc2ccc(-c3ccccn3)cc2)sc1S(N)(=O)=O [BAY 57‐1293]
[1]
  Percentage of motility inhibition 0 h: 36%
[2]
  Percentage of motility inhibition 24 h: 0%

## C[C@@H]1CC[C@]2(C(=O)O)CC[C@]3(C)C(=CC[C@@H]4[C@@]5(C)C[C@@H](O)[C@H](O)C(C)(C)[C@@H]5CC[C@]43C)[C@@H]2[C@]1(C)O [Tormentic acid]
[1]
  Percentage of motility inhibition 0 h: 3%
[2]
  Percentage of motility inhibition 24 h: 5%

## CO[C@@]1(NC(=O)CSCC#N)C(=O)N2C(C(=O)[O-])=C(CSc3nnnn3C)CS[C@@H]21.[Na+] [Cefmetazole (sodium)]
[1]
  Percentage of motility inhibition 0 h: 7%
[2]
  Percentage of motility inhibition 24 h: 25%

## COc1ccc2c(c[n+](C)c3c4cc5c(cc4ccc23)OCO5)c1OC.[Cl-] [Chelerythrine (chloride)]
[1]
  Percentage of motility inhibition 0 h: 17%
[2]
  Percentage of motility inhibition 24 h: 22%

## O=c1c(O[C@@H]2O[C@H](CO)[C@@H](O)[C@H](O)[C@H]2O)c(-c2ccc(O)c(O)c2)oc2cc(O[C@@H]3O[C@H](CO[C@@H]4O[C@H](CO)[C@@H](O)[C@H](O)[C@H]4O)[C@@H](O)[C@H](O)[C@H]3O)cc(O)c12
110 µM
  Percentage of motility inhibition 0 h: 0%
  Percentage of motility inhibition 24 h: 0%

## Cc1ccc2nc(C)ccc2c1 [2,6‐Dimethylquinoline]
[1]
  Percentage of motility inhibition 0 h: 0%
[2]
  Percentage of motility inhibition 24 h: 6%

## O=c1c(O[C@@H]2O[C@H](CO[C@@H]3O[C@H](CO)[C@@H](O)[C@H](O)[C@H]3O)[C@@H](O)[C@H](O)[C@H]2O)c(-c2ccc(O)cc2)oc2cc(O)cc(O)c12 [Kaempferol 3‐O‐gentiobioside]
[1]
  Percentage of motility inhibition 0 h: 0%
[2]
  Percentage of motility inhibition 24 h: 12%

## CC(C)=CCC[C@@](C)(O)[C@H]1CC[C@]2(C)[C@@H]1[C@H](O)C[C@@H]1[C@@]3(C)CC[C@H](O)C(C)(C)[C@@H]3[C@@H](O[C@@H]3O[C@H](CO)[C@@H](O)[C@H](O)[C@H]3O[C@@H]3O[C@@H](C)[C@H](O)[C@@H](O)[C@H]3O)C[C@]12C [20(R)-Ginsenoside Rg2]
[1]
  Percentage of motility inhibition 0 h: 0%
[2]
  Percentage of motility inhibition 24 h: 8%

## C[C@H]1CC[C@H]2[C@H](C)[C@@H]3CC[C@@H]4[C@@H](C[C@H]5[C@H]4C[C@@H](O)[C@H]4C[C@@H](O)CC[C@@]45C)[C@@H]3CN2C1 [Hupehenine]
[1]
  Percentage of motility inhibition 0 h: 0%
[2]
  Percentage of motility inhibition 24 h: 10%

## CN1CC(=O)NC1=O [N‐Methylhydantoin]
[1]
  Percentage of motility inhibition 0 h: 13%
[2]
  Percentage of motility inhibition 24 h: 16%

## O=c1cc(-c2ccc(O)cc2)oc2c([C@@H]3O[C@H](CO)[C@@H](O)[C@H](O)[C@H]3O)c(O)c([C@@H]3OC[C@H](O)[C@H](O)[C@H]3O)c(O)c12 [Isoschaftoside]
[1]
  Percentage of motility inhibition 0 h: 9%
[2]
  Percentage of motility inhibition 24 h: 0%

## CC(C)NCC(O)COc1cccc2ccccc12.Cl (stereo not drawn) [Propranolol (hydrochloride)]
[2]
  Percentage of motility inhibition 24 h: 51% and 35%

## CC1(C)CC[C@]2(C(=O)O[C@@H]3O[C@H](CO)[C@@H](O)[C@H](O)[C@H]3O)CC[C@]3(C)C(=CC[C@@H]4[C@@]5(C)CC[C@H](O)C(C)(C)[C@@H]5CC[C@]43C)[C@@H]2C1 [Oleanolic acid 28-O-β-D-glucopyranoside]
[1]
  Percentage of motility inhibition 0 h: 33%
[2]
  Percentage of motility inhibition 24 h: 34%

## RKDVY [Thymopentin]
0 h, 110 μM
  Percentage of motility inhibition 0 h: 36%
24 h, 110 µM
  Percentage of motility inhibition 24 h: 3%

## CC(=O)O[C@@H]1CC[C@@]2(C)[C@@H](CC[C@]3(C)[C@@H]2C(=O)C=C2[C@@H]4[C@@H](C)[C@H](C)CC[C@]4(C)CC[C@]23C)[C@@]1(C)C(=O)O [AKBA]
[1]
  Percentage of motility inhibition 0 h: 0%
[2]
  Percentage of motility inhibition 24 h: 6%

## Cc1ncc(C[n+]2csc(CCO)c2C)c(N)n1.O=[N+]([O-])[O-] [Thiamine nitrate]
[1]
  Percentage of motility inhibition 0 h: 12%
[2]
  Percentage of motility inhibition 24 h: 1%

## CC(=O)[C@H]1CC[C@H]2[C@@H]3CC=C4C[C@@H](OS(=O)(=O)[O-])CC[C@]4(C)[C@H]3CC[C@]12C.[Na+] [Pregnenolone monosulfate (sodium)]
[1]
  Percentage of motility inhibition 0 h: 0%
[2]
  Percentage of motility inhibition 24 h: 0%

## Cc1onc(-c2ccccc2)c1C(=O)N[C@@H]1C(=O)N2[C@@H]1SC(C)(C)[C@@H]2C(=O)[O-].O.[Na+] [Oxacillin (sodium monohydrate)]
[1]
  Percentage of motility inhibition 0 h: 27%
[2]
  Percentage of motility inhibition 24 h: 9%

## CC(C)=CCC[C@](C)(O)[C@H]1CC[C@]2(C)[C@@H]1[C@H](O)C[C@@H]1[C@@]3(C)CC[C@H](O[C@@H]4O[C@H](CO)[C@@H](O)[C@H](O)[C@H]4O[C@@H]4O[C@H](CO)[C@@H](O)[C@H](O)[C@H]4O)C(C)(C)[C@@H]3CC[C@]12C [20(S)-Ginsenoside Rg3]
[1]
  Percentage of motility inhibition 0 h: 0%
[2]
  Percentage of motility inhibition 24 h: 0%

## COc1ccc(-c2cc(=O)c3c(OC)cc(OC)c(OC)c3o2)cc1OC [Isosinensetin]
[1]
  Percentage of motility inhibition 0 h: 0%
[2]
  Percentage of motility inhibition 24 h: 2%

## Cl.Cl.O=C(C[C@H]1NCCC[C@@H]1O)Cn1cnc2ccccc2c1=O [Febrifugine (dihydrochloride)]
[1]
  Percentage of motility inhibition 0 h: 30%
[2]
  Percentage of motility inhibition 24 h: 2%

## O=C(O[C@@H]1Cc2c(O)cc(O)cc2O[C@@H]1c1cc(O)c(O)c(O)c1)c1cc(O)c(O)c(O)c1 [(‐)‐Epigalloca techin Gallate]
[1]
  Percentage of motility inhibition 0 h: 9%
[2]
  Percentage of motility inhibition 24 h: 6%
